From patent US9925235B2, “Tilapia piscidins for use in enhancement of wound healing” (Academia Sinica, priority 2015, dated 2018)

Key:
[1] = test system: Collagen I, collagen III, KGF gene expression in Hs-68 cells; assay: Real-time PCR of collagen I, collagen III, KGF in Hs-68 cells; format: cell-based, human; details: TP4 6.25 μg/ml, 48 h, vs controls
Description: In FIG. 5A-5C, Hs-68 cells were treated with different doses of TP4 for 48 h, and cell viability was measured by neutral red, LDH, and MTT assays. (r=3; n=6.) In FIG. 5D-5F, the experimental Hs-68 cells were treated with TP4 ([…]), while control cells were untreated. After 48 h, total RNA was isolated and reverse transcribed for use in real-time qPCR analysis. Six replicate wells were analyzed per assay. Results represent the mean±SEM from three independent experiments. (Student's t-test: *, P<0.05; **, P<0.01; n.s.: not significant).
Total RNA was isolated from HaCaT and Hs-68 cells, and purified using a Qiagen RNeasy kit. Reverse transcription into cDNA was performed with an iScript cDNA Synthesis Kit (BIO-RAD, USA) according to the manufacturer's recommendations. Real-time polymerase chain reaction (PCR) was performed to analyze gene expression, using […] of cDNA, 2× iQSYBR® Green Supermix (BIO-RAD, USA), and 500 nM of forward and reverse primers against selected genes or GAPDH (reference gene), according to the instructions of the manufacturer. Quantitative PCR was performed under the following conditions: 40 cycles of 1 min at 95° C., 30 s at 55° C., and 1 min at 72° C. The threshold cycle number (Ct) was calculated with BIO-RAD software. Relative transcript quantities were calculated using the ΔCt method with GAPDH as the internal reference gene. ΔCt is the difference in the threshold cycles of messenger (m)RNA for selected genes relative to those of GAPDH mRNA. Real-time PCR was performed in triplicate for each experimental group.

[2] = test system: Keratin 10, keratin 17 gene expression in HaCaT cells; assay: Real-time PCR of keratin 10 and keratin 17 in HaCaT cells; format: cell-based, human; details: TP4 6.25 μg/ml, 48 h
Description: In FIG. 6A-6C, HaCaT cells were treated with different doses of TP4 for 48 h, and cell viability was measured by neutral red, LDH, and MTT assays (r=3; n=6). In FIGS. 6D and 6E, thee experimental HaCaT cells were treated with TP4 (6.25 μg/ml), while control cells were untreated. After 48 h, total RNA was isolated and reverse transcribed for use in real-time qPCR analysis. Six replicate wells were analyzed per assay. Results represent the mean±SEM from three independent experiments. (Student's t-test: *, P<0.05; **, P<0.01, n.s.: not significant).
Total RNA was isolated from HaCaT and Hs-68 cells, and purified using a Qiagen RNeasy kit. Reverse transcription into cDNA was performed with an iScript cDNA Synthesis Kit (BIO-RAD, USA) according to the manufacturer's recommendations. […] Quantitative PCR was performed under the following conditions: 40 cycles of 1 min at 95° C., 30 s at 55° C., and 1 min at 72° C. The threshold cycle number (Ct) was calculated with BIO-RAD software. Relative transcript quantities were calculated using the ΔCt method with GAPDH as the internal reference gene. ΔCt is the difference in the threshold cycles of messenger (m)RNA for selected genes relative to those of GAPDH mRNA. […]

MRSA = assay: Mouse wound healing model, wound closure, TP4; format: in vivo, Balb/c mice; details: MRSA-contaminated full-thickness wounds
Description: Female Balb/c mice (6-8 weeks old) were used for wound healing experiments. All mice were housed individually to prevent fighting and further damage to the wounds, and they were provided with food and water ad libitum. Mice were maintained on a 12 h light: dark cycle at room temperature, and acclimatized to the environment for at least a week before use in experiments. All researchers wore caps, sterile gloves, gowns, and shoe covers when handling mice. Hair was removed from the back of the mice by shaving, and a full thickness wound (1 cm in diameter) was then created in the exposed region. Each wound was inoculated with 50 μl of broth mix containing 10^6 cfu (colony forming units) of S. aureus. At 5 min after inoculation, 50 μl TP4 (2 mg/ml) in a total volume of 0.1 ml were applied. […] Animals were subsequently euthanized by CO2 inhalation and the wounds assessed. […] Each wound was measured and then removed from the animal, with unwounded skin taken from the contralateral dorsum as a control. Each biopsy was divided into six sections, with three sections being used for tensiometry and histology, and three sections for quantitative determination of microbial load. […]
Tracings were taken immediately after injury. For uncontaminated wounds, wound size was determined every second day. […] Wound areas were determined using the Macintosh Adobe Photoshop program, Histogram Analysis. […]

TNF, IL-6, IL-1 = assay: ELISA of serum cytokines in MRSA wound-infected mice, TP4; format: in vivo
Description: A skin region of about 1 square centimeter was removed from the abdomen of […] mice, and the wound was infected with […] of broth mix containing 10^6 cfu of MRSA alone, or together with methicillin, vancomycin, or TP4. At different days post-infection: TNF (FIG. 9A), IL-6 (FIG. 9B), and IL-1 (FIG. 9C) were detected in serum by ELISA. (r=3; n=6.) Values with different letters show significant differences (P<0.05), as determined by ANOVA.
Skin tissues were removed and fixed as previously described. In brief, the cryosections were fixed with 4% formaldehyde, and the tissue samples were stained with VEGF. IHC was analyzed by three independent investigators. Images were taken using a BX-51 microscope (Olympus, Japan). ELISA was performed as previously described.

[3] = serum, 3 days after treatment, vs positive controls

Question: For “Tilapia piscidin 4 (FIHHIIGGLFSAGKAIHRLIRRRRR; listed as Oreochromis niloticus) [TP4]”, which “Collagen I gene expression” value [1] is on record?
Answer: enhanced

Question: And the “Collagen III gene expression” value [1]?
Answer: enhanced

Question: And the KGF gene expression [1]?
Answer: enhanced

Question: And the “gene expression of keratin 10” value [2]?
Answer: significantly increased

Question: What about the “gene expression of keratin 17” value [2] of the same substance?
Answer: did not affect

Question: What about the “day of wound closure” value (MRSA) of the same substance?
Answer: 21 days

Question: And the wound closure (MRSA)?
Answer: wound closure was accelerated

Question: What about the IL-1 (TNF, IL-6, IL-1; TP4-treated wounds vs control wounds) of the same substance?
Answer: statistically significant enhancement

Question: What about the “induction of IL-6” value (TNF, IL-6, IL-1; [3]) of the same substance?
Answer: decreased induction

Question: What about the “induction of TNF” value (TNF, IL-6, IL-1; [3]) of the same substance?
Answer: decreased induction
